Here are results for 17 molecules from ChEMBL document CHEMBL1153977, “Fluorinated non-imidazole histamine H3 receptor antagonists” (Bioorg Med Chem Lett, 2009).

A value given as a limit tells only on which side of the number the result lay.

The target of test [1] is Histamine H3 receptor (Homo sapiens, UniProt Q9Y5N1). The test can be described thus: Displacement of [125I]iodoproxyfan from human histamine H3 receptor expressed in […] cells. The test is classed as cell-based, HEK293.
The subject of test [2] is Mus musculus. The test can be described thus: In vivo histamine H3 receptor potency in po dosed Swiss mouse assessed as N'-methylhistamine level. In kind it is functional.

Histamine H3 receptor, sequence (Q9Y5N1 whole entry): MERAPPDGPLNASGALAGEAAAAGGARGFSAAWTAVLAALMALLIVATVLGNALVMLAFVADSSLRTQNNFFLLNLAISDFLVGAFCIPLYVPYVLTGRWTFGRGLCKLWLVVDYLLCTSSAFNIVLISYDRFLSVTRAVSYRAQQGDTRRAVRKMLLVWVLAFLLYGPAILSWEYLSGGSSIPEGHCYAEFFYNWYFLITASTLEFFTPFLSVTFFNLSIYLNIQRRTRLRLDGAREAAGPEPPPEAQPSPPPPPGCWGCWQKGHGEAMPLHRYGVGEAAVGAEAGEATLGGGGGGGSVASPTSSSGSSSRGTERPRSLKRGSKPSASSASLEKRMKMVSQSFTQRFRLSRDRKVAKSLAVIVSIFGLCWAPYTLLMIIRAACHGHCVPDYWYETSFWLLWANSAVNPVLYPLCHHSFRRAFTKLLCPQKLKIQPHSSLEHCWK

For orientation: Ki means the dissociation constant of the complex between target and ligand, obtained from inhibition or displacement. Read a high Ki as a looser hold on the target. Broadly, the ED50 is the midpoint of the dose-response relation. Take `N#Cc1ccc(OCCCN2CCCCC2)cc1`: the Ki in test [1] turned out to be 11 nM. Also, in test [2], the ED50 is 0.2 mg/kg.

Regarding `c1cc(CN2CCCCC2)ccc1COc1ccc(CN2CCCCC2)cc1`, the ED50 in test [2] was 9.6 mg/kg. `FCCc1ccc(OCCCN2CCCCC2)cc1` had a Ki in test [1] of 43 nM.

As to `F[C@@H]1CCN(Cc2ccc(OCCCN3CCCC3)cc2)C1`, the affinity in test [1] corresponds to a Ki of 0.31 nM. This Ki lies about 140-fold lower than the previous one. Turning to `FCc1ccc(OCCCN2CCCCC2)cc1`, the inhibitory constant (Ki) in test [1] was 17.3 nM.

Turning to `F[C@@H]1CCN(Cc2ccc(OCCCN3CCCCC3)cc2)C1`, affinity in test [1] was put at a Ki of 0.28 nM. Compared with the last molecule, the Ki is about 62-fold lower. On the same count and under the same terms, next, `FC1CCN(CCCOc2ccc(CN3CCCC3)cc2)CC1`: 0.99 nM. Consider `FC1(F)CCN(Cc2ccc(OCCCN3CCCCC3)cc2)CC1`, for which the affinity in test [1] corresponds to a Ki of 0.24 nM. In addition, the ED50 in test [2] was found to be 0.4 mg/kg. `ClC1CCN(Cc2ccc(OCCCN3CCCCC3)cc2)CC1` yielded a Ki in test [1] of 0.068 nM. In other words, the picomolar range. `CS(=O)(=O)OC1CCN(Cc2ccc(OCCCN3CCCCC3)cc2)CC1` gave a Ki in test [1] of 0.84 nM. In test [1], `F[C@H]1CCN(Cc2ccc(OCCCN3CCCCC3)cc2)C1` had an inhibition constant Ki of 0.28 nM. In addition, the ED50 in test [2] is 3.9 mg/kg. `N#Cc1ccc(OCCCN2CCC(F)(F)CC2)cc1` registered a Ki in test [1] above 1000 nM. Same read-out and setting: the figure for `BrC1CCN(Cc2ccc(OCCCN3CCCCC3)cc2)CC1` is 0.2 nM. In the case of `FC1CCN(Cc2ccc(OCCCN3CCCCC3)cc2)CC1`, in test [1], the Ki was 0.094 nM. Besides, in test [2], the ED50 came out at 7.4 mg/kg.

For `FC1CCN(Cc2ccc(OCCCN3CCCC3)cc2)CC1`, the Ki in test [1] amounted to 0.26 nM. Further, in test [2], the ED50 worked out at 12 mg/kg. Turning to `c1cc(OCCCN2CCCCC2)ccc1CN1CCCCC1` [JNJ-5207852], the ED50 in test [2] came to 0.12 mg/kg. Regarding `Clc1ccc(CCCOCCCN2CCCCC2)cc1` [PITOLISANT], the ED50 in test [2] was 1.5 mg/kg.
